Measured values taken from patent US20240293413A1, “COMPOUND AND METHOD FOR TREATING CHEMOTHERAPY-RELATED GASTROINTESTINAL SIDE EFFECTS” (ONQUALITY PHARMACEUTICALS CHINA LTD., priority 2021, published 2024).

Tests used:
Format in all cases: in vivo
[1] = test system: diarrhea caused by a chemotherapeutic agent in Balb/c mice; assay: Examples 230-271 (Table 4): oral CDK inhibitor, relief of diarrhea caused by a chemotherapeutic agent
Description: Balb/c mice were fed for 1 week, and then divided into groups. The experiment was divided into a control group, a chemotherapeutic agent group, and a CDK inhibitor group, each of which comprised 10 mice, to perform the administration experiment, for which the administration dosage, mode, time and frequency were shown in Table 4. The control group: being intragastrically administered with the same solvent as that used in the CDK inhibitor group (the time was shown in Table 4), and then being injected/intragastrically administered with the same solvent as that used in the chemotherapeutic agent group (the administration mode was shown in Table 4): the chemotherapeutic agent group: being intragastrically administered with the same solvent as that used in the CDK inhibitor group (the time was shown in Table 4), and then being injected/intragastrically administered with the chemotherapeutic agent (the type, administration mode and dosage were shown in Table 4): the CDK inhibitor group: being intragastrically administered with the CDK inhibitor (the time was shown in Table 4), and then being administered with the chemotherapeutic agent (the mode and dosage were shown in Table 4).
(§1) The diarrhea grading of mice was observed and recorded every day.

[2] = test system: diarrhea caused by a chemotherapeutic agent in Balb/c mice; assay: Examples 343-381 (Table 6): oral versus intravenous CDK inhibitor, relief of diarrhea caused by a chemotherapeutic agent; conditions: cycle 10 days;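 note: percent of treated mice whose diarrhea grade fell below chemotherapy-group average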
Description: Balb/c mice were fed for 1 week, and then divided into groups. The experiment was divided into a control group, a chemotherapeutic agent group, and an oral administration group of a CDK inhibitor, and an intravenous injection group of a CDK inhibitor, each of which comprised 10 mice, to perform the administration experiment, for which the administration dosage, mode, time and frequency were shown in Table 6. The control group: being injected/intragastrically administered with the same solvent as that used in the CDK inhibitor group (the time was shown in Table 6), and then being injected/intragastrically administered with the same solvent as that used in the chemotherapeutic agent group (the administration mode was shown in Table 6): the chemotherapeutic agent group: being injected/intragastrically administered with the same solvent as that used in the CDK inhibitor group (the time was shown in Table 6), and then being injected/intragastrically administered with the chemotherapeutic agent (the type, administration mode and dosage were shown in Table 6): the oral administration group of the CDK inhibitor: being intragastrically administered with the CDK inhibitor (the time was shown in Table 6), and then being administered with the chemotherapeutic agent (the mode and dosage were shown in Table 6): the intravenous injection group of the CDK inhibitor: being injected with the CDK inhibitor through tail vein (the time was shown in Table 6), and then being administered with the chemotherapeutic agent (the mode and dosage were shown in Table 6).
as §1

[3] = test system: Chemotherapeutic agent-caused diarrhea models of Balb/c mice; assay: Examples 1-229 (Table 3): oral CDK inhibitor, relief of diarrhea caused by a chemotherapeutic agent;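 note: percent of treated mice whose diarrhea grade fell below chemotherapy-group average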
[4] = test system: Chemotherapeutic agent-caused constipation models of Balb/c mice; assay: Examples 272-342 (Table 5): oral CDK inhibitor, relief of constipation caused by a chemotherapeutic agent; conditions: Example 335; Cytarabine (Ara-C) oral administration 1000 mg/kg single; CDK inhibitor oral 60 mg/kg single, 24 h before; cycle 8 days;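 note: percent of treated mice relieved versus chemotherapy group by feces reduction rate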
Description: Construction of mouse animal models: Chemotherapeutic agent-caused constipation models of Balb/c mice were constructed according to the administration mode and frequency of the chemotherapeutic agent as shown in Table 5.
Balb/c mice were fed for 1 week, and then divided into groups. The experiment was divided into a control group, a chemotherapeutic agent group, and a CDK inhibitor group, each of which comprised 10 mice, to perform the administration experiment, for which the administration dosage, mode, time and frequency were shown in Table 5. The control group: being intragastrically administered with the same solvent as that used in the CDK inhibitor group (the time was shown in Table 5), and then being injected/intragastrically administered with the same solvent as that used in the chemotherapeutic agent group (the administration mode was shown in Table 5): the chemotherapeutic agent group: being intragastrically administered with the same solvent as that used in the CDK inhibitor group (the time was shown in […]), and then being injected/intragastrically administered with the chemotherapeutic agent (the type, administration mode and dosage were shown in Table 5): the CDK inhibitor group: being intragastrically administered with the CDK inhibitor (the time was shown in Table 5), and then being administered with the chemotherapeutic agent (the mode and dosage were shown in Table 5).
Feces reduction rate (%)=(the control group−the chemotherapeutic agent group or the CDK inhibitor group)/the control group*100%
The feces amount of mice within 3 hours was observed and recorded every day.

Question: Which Relative remission rate ([1]; Example 240, Doxorubicin (Dox) intramuscular injection 10 mg/kg single, CDK inhibitor oral 40 mg/kg single, 0.5 h before, cycle 10 days) does the source give for CCc1cnn2c(NCc3ccc[n+]([O-])c3)cc(N3CCCC[C@H]3CCO)nc12 [Dinaciclib] here?
Answer: 30%

Question: What about the Relative remission rate ([1]; Example 241, Doxorubicin (Dox) intramuscular injection 10 mg/kg single, CDK inhibitor oral 40 mg/kg single, 12 h before, cycle 10 days) of the same molecule?
Answer: 20%

Question: And the Relative remission rate ([1]; Example 242, Doxorubicin (Dox) intramuscular injection 10 mg/kg single, CDK inhibitor oral 40 mg/kg single, 24 h before, cycle 10 days)?
Answer: 0%

Question: What about the Relative remission rate ([2]; Example 368, Topotecan (TP) intravenous injection 10 mg/kg single, CDK inhibitor intravenous injection 40 mg/kg single, 0.5 h before) of the same molecule?
Answer: 10%

Question: What about the Relative remission rate ([2]; Example 368, Topotecan (TP) intravenous injection 10 mg/kg single, CDK inhibitor oral 40 mg/kg single, 0.5 h before) of the same molecule?
Answer: 20%

Question: What about the “Relative remission rate (%)” value ([3]; Example 131, Docetaxel (DTX) intraperitoneal injection 10 mg/kg single, CDK inhibitor oral 40 mg/kg single 0.5 h before, cycle 8 days) of the same molecule?
Answer: 10%

Question: And the “Relative remission rate (%)” value ([3]; Example 132, Docetaxel (DTX) intraperitoneal injection 10 mg/kg single, CDK inhibitor oral 40 mg/kg single 1 h before, cycle 8 days)?
Answer: 10%

Question: What about the “Relative remission rate (%)” value ([3]; Example 133, Docetaxel (DTX) intraperitoneal injection 10 mg/kg single, CDK inhibitor oral 40 mg/kg single 2 h before, cycle 8 days) of the same molecule?
Answer: 20%

Question: What about the “Relative remission rate (%)” value ([3]; Example 134, Docetaxel (DTX) intraperitoneal injection 10 mg/kg single, CDK inhibitor oral 40 mg/kg single 4 h before, cycle 8 days) of the same molecule?
Answer: 20%

Question: And the “Relative remission rate (%)” value ([3]; Example 135, Docetaxel (DTX) intraperitoneal injection 10 mg/kg single, CDK inhibitor oral 40 mg/kg single 6 h before, cycle 8 days)?
Answer: 30%

Question: And the “Relative remission rate (%)” value ([3]; Example 136, Docetaxel (DTX) intraperitoneal injection 10 mg/kg single, CDK inhibitor oral 40 mg/kg single 8 h before, cycle 8 days)?
Answer: 30%

Question: And the “Relative remission rate (%)” value ([3]; Example 137, Docetaxel (DTX) intraperitoneal injection 10 mg/kg single, CDK inhibitor oral 40 mg/kg single 10 h before, cycle 8 days)?
Answer: 30%

Question: What about the “Relative remission rate (%)” value ([3]; Example 138, Docetaxel (DTX) intraperitoneal injection 10 mg/kg single, CDK inhibitor oral 40 mg/kg single 12 h before, cycle 8 days) of the same molecule?
Answer: 20%

Question: What about the “Relative remission rate (%)” value ([3]; Example 139, Docetaxel (DTX) intraperitoneal injection 10 mg/kg single, CDK inhibitor oral 40 mg/kg single 14 h before, cycle 8 days) of the same molecule?
Answer: 20%

Question: What about the “Relative remission rate (%)” value ([3]; Example 140, Docetaxel (DTX) intraperitoneal injection 10 mg/kg single, CDK inhibitor oral 40 mg/kg single 16 h before, cycle 8 days) of the same molecule?
Answer: 40%

Question: What about the “Relative remission rate (%)” value ([3]; Example 141, Docetaxel (DTX) intraperitoneal injection 10 mg/kg single, CDK inhibitor oral 40 mg/kg single 18 h before, cycle 8 days) of the same molecule?
Answer: 30%

Question: What about the “Relative remission rate (%)” value ([3]; Example 142, Docetaxel (DTX) intraperitoneal injection 10 mg/kg single, CDK inhibitor oral 40 mg/kg single 20 h before, cycle 8 days) of the same molecule?
Answer: 30%

Question: And the “Relative remission rate (%)” value ([3]; Example 143, Docetaxel (DTX) intraperitoneal injection 10 mg/kg single, CDK inhibitor oral 40 mg/kg single 22 h before, cycle 8 days)?
Answer: 20%

Question: And the “Relative remission rate (%)” value ([3]; Example 144, Docetaxel (DTX) intraperitoneal injection 10 mg/kg single, CDK inhibitor oral 40 mg/kg single 24 h before, cycle 8 days)?
Answer: 10%

Question: And the “Relative remission rate (%)” value ([3]; Example 145, Docetaxel (DTX) intraperitoneal injection 10 mg/kg single, CDK inhibitor oral 40 mg/kg single 48 h before, cycle 8 days)?
Answer: 0%

Question: What about the “Relative remission rate (%)” value ([3]; Example 204, Gemcitabine 60 mg/kg and paclitaxel 10 mg/kg intraperitoneal injection single, CDK inhibitor oral 70 mg/kg single, 4 h before, 8 days) of the same molecule?
Answer: 30%

Question: What does the source list for CN1CCC(c2c(O)cc(O)c3c(=O)cc(-c4ccccc4Cl)oc23)C1CO (stereo not shown) [Riviciclib]?
Answer: Relative remission rate ([1]; Example 262, Cytarabine (Ara-C) oral administration 1000 mg/kg single, CDK inhibitor oral single (dosage not given), 24 h before, cycle 8 days): 20%; Relative remission rate [4]: 20%; Relative remission rate ([2]; Example 370, Topotecan (TP) oral administration 20 mg/kg single, CDK inhibitor intravenous injection 60 mg/kg single, 24 h before): 10%; Relative remission rate ([2]; Example 370, Topotecan (TP) oral administration 20 mg/kg single, CDK inhibitor oral 60 mg/kg single, 24 h before): 30%; Relative remission rate (%) ([3]; Example 35, Fluorouracil (5-Fu) intraperitoneal injection 125 mg/kg single, CDK inhibitor oral 65 mg/kg single 8 h before, cycle 10 days): 40%; Relative remission rate (%) ([3]; Example 192, Gemcitabine (GEM) intravenous injection 120 mg/kg single, CDK inhibitor oral 180 mg/kg single, 6 h before, 8 days): 70%; Relative remission rate (%) ([3]; Example 215, Fluorouracil 100 mg/kg and irinotecan 200 mg/kg intravenous injection single, CDK inhibitor oral 65 mg/kg single, 2 h before, 10 days): 50%
